Measured values from patent publication US9993001B2, “Herbicidal composition” (ISHIHARA SANGYO KAISHA, LTD., priority 2014, dated 2018).

How the values were obtained:
Assay type in all cases: in vivo
[1] = tested on: barnyardgrass (Echinochloa crus-qalli L.); assay: Test Example 5: adzuki bean field, soil treatment, metobromuron + fluazifop-P-butyl; conditions: 700 g/ha; soil treatment, adzuki bean field; 39th day after treatment
Text: (§1) When the herbicidal activity in a case where two active ingredients are combined, is larger than the simple sum of the respective herbicidal activities of the two active ingredients (the expected activity), it is called a synergistic effect. The activity expected by the combination of two active ingredients can be calculated as follows (Colby S. R., “Weed”, vol. 15, p. 20-22, 1967). E=α+β−(α×β[…]) where α: growth inhibition rate when treated with x (g/ha) of herbicide X, • β: growth inhibition rate when treated with y (g/ha) of herbicide Y, • E: growth inhibition rate expected when treated with x (g/ha) of herbicide X and y (g/ha) of herbicide Y.
(§2) On the 19th day after treatment, the state of growth of barnyardgrass was visually observed and evaluated in accordance with the following standards. The growth inhibition rate (%) [measured value] and the growth inhibition rate (%) [calculated value] calculated by the Colby's method, are shown in Table 2.
(§3) Growth inhibition rate (%)=inhibition rate) (%) of 0 (equivalent to the non-treated area) to 100 (complete kill) […]
On the 39th day after treatment, the state of growth of barnyardgrass (Echinochloa crus-qalli L.) which occurred naturally, was visually observed and evaluated in the same manner as in Test Example 1.

[2] = tested on: black nightshade (Solanum nigrum L.); assay: Test Example 23: pot, soil treatment, metobromuron + fluazifop-P-butyl; conditions: 131.25 g/ha; soil treatment, pot; 20th day after treatment
Text: as §1, §2
(§4) Growth inhibition rate (%)=inhibition rate) (%) of 0 (equivalent to the non-treated area) to 100 (complete kill)
Soil was put into a 1/300,000 ha pot, and seeds of black nightshade (Solanum nigrum L.) were sown. […]
On the 20th day after treatment, the state of growth of black nightshade was visually observed and evaluated in the same manner as in Test Example 1.

[3] = tested on: barnyardgrass (Echinochloa crus-qalli L.); assay: Test Example 4: soybean field, soil treatment, metobromuron + trifluralin; conditions: 890 g/ha, soil treatment, soybean field, 50th day after treatment, read-out: Growth inhibition rate of barnyardgrass (%) Measured value
Text: as §1, §2, §3
On the 50th day after treatment, the state of growth of barnyardgrass (Echinochloa crus-qalli L.) which occurred naturally, was visually observed and evaluated in the same manner as in Test Example 1.

[4] = tested on: Oriental lady's thumb (Persicaria longiseta); assay: Test Example 7: common bean field, soil treatment, metobromuron + trifluralin; conditions: 1335 g/ha, soil treatment, common bean field, 49th day after treatment, read-out: Growth inhibition rate of Oriental lady's thumb (%) Measured value
Text: as §1, §2, §3
On the 49th day after treatment, the state of growth of Oriental lady's thumb (Persicaria longiseta) which occurred naturally, was visually observed and evaluated in the same manner as in Test Example 1.

[5] = tested on: common lambsquarters (Chenopodium album L.); assay: Test Example 24: pot, soil treatment, metobromuron + trifluralin; conditions: soil treatment, pot, 21st day after treatment, read-out: Growth inhibition rate of common lambsquarters (%) Measured value
Text: as §1, §2, §4
Soil was put into a 1/300,000 ha pot, and seeds of common lambsquarters (Chenopodium album L.) were sown. On the day after seeding, predetermined amounts of SC containing metobromuron as active ingredient (same as in Test Example 1) and EC containing trifluralin as active ingredient (same as in Test Example 4) were diluted with water corresponding to 1,000 L per hectare and applied for soil treatment.
On the 21st day after treatment, the state of growth of common lambsquarters was visually observed and evaluated in the same manner as in Test Example 1.

[6] = tested on: common chickweed (Stellaria media L.); assay: Test Example 25: pot, soil treatment, metobromuron + trifluralin; conditions: 445 g/ha, soil treatment, pot, 21st day after treatment, read-out: Growth inhibition rate of common chickweed (%) Measured value

Compound	Growth inhibition rate of barnyardgrass (%) Measured value [1]	Growth inhibition rate of black nightshade (%) Measured value [2]	inhibition at 890 g/ha [3]	inhibition at 1335 g/ha [4]	inhibition at 296.7 g/ha ([5]; 296.7 g/ha)	inhibition at 445 g/ha ([5]; 445 g/ha)	inhibition at 667.5 g/ha ([5]; 667.5 g/ha)	inhibition at 445 g/ha [6]
CCCCOC(=O)[C@@H](C)Oc1ccc(Oc2ccc(C(F)(F)F)cn2)cc1 [Fluazifop-P-butyl, butyl (R)-2-[4-[5-(trifluoromethyl)-2-pyridyloxy]phenoxy] propionate]	55%	25%						
CCCN(CCC)c1c([N+](=O)[O-])cc(C(F)(F)F)cc1[N+](=O)[O-] [Trifluralin, α,α,α-trifluoro-2,6-dinitro-N,N-dipropyl-p-toluidine]			20%	40%	20%	15%	48%	35%
